Data taken from PubChem BioAssay AID2060605 (Molecular Pharmacology Branch, DTP, NCI, 2025).

Tested on: 947758-054-R-J2-PDC spheroid growth, percent test/control
Assay: Anticancer human tumor 947758-054-R-J2-PDC patient-derived colon adenocarcinoma cell line growth inhibition [CLK]
Conditions: spheroids with HUVEC and MSC; for IC50: curve of first compound; for viability, T/C: stronger effect = lower value
Procedure, shortened: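 Multi-cell-type spheroids combined patient-derived tumor cells with HUVEC endothelial cells and human mesenchymal stem cells. Paired agents were dosed in half-log steps down from about clinical Cmax, or from 10 microM where Cmax was unknown.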

[1] = second compound 0.0316 µM, first compound 0.0316 µM
[2] = second compound 0.0316 µM, first compound 0.1 µM
[3] = second compound 0.0316 µM, first compound 0.316 µM
[4] = second compound 0.0316 µM, first compound 1 µM
[5] = second compound 0.0316 µM, first compound 3.16 µM
[6] = second compound 0.0316 µM, first compound 10 µM
[7] = second compound 0.1 µM, first compound 0.0316 µM
[8] = second compound 0.1 µM, first compound 0.1 µM
[9] = second compound 0.1 µM, first compound 0.316 µM
[10] = second compound 0.1 µM, first compound 1 µM
[11] = second compound 0.1 µM, first compound 3.16 µM
[12] = second compound 0.1 µM, first compound 10 µM
[13] = second compound 0.316 µM, first compound 0.0316 µM
[14] = second compound 0.316 µM, first compound 0.1 µM
[15] = second compound 0.316 µM, first compound 0.316 µM
[16] = second compound 0.316 µM, first compound 1 µM
[17] = second compound 0.316 µM, first compound 3.16 µM
[18] = second compound 0.316 µM, first compound 10 µM
[19] = second compound 1 µM, first compound 0.0316 µM
[20] = second compound 1 µM, first compound 0.1 µM
[21] = second compound 1 µM, first compound 0.316 µM
[22] = second compound 1 µM, first compound 1 µM
[23] = second compound 1 µM, first compound 3.16 µM
[24] = second compound 1 µM, first compound 10 µM
[25] = second compound 3.16 µM, first compound 0.0316 µM
[26] = second compound 3.16 µM, first compound 0.1 µM
[27] = second compound 3.16 µM, first compound 0.316 µM
[28] = second compound 3.16 µM, first compound 1 µM
[29] = second compound 3.16 µM, first compound 3.16 µM
[30] = second compound 3.16 µM, first compound 10 µM
[31] = second compound 10 µM, first compound 0.0316 µM
[32] = second compound 10 µM, first compound 0.1 µM
[33] = second compound 10 µM, first compound 0.316 µM
[34] = second compound 10 µM, first compound 1 µM
[35] = second compound 10 µM, first compound 3.16 µM
[36] = second compound 10 µM, first compound 10 µM
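Also: spheroids exposed to compounds for one week before readout.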
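For viability, T/C in this document: 100% = DMSO vehicle control wells.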

**Q.** Which IC50 (second compound 0.0316 µM) does the source give for `Nc1ccn(C2OC(CO)C(O)C2(F)F)c(=O)n1` (centres undefined) + CNC(=O)c1ccc(Nc2nc(OC3CCCC3)c3c(-c4ccc5nc(C)oc5c4)c[nH]c3n2)c(OC)c1 here?
**A.** < 0.0316 µM

**Q.** And the IC50 (second compound 0.1 µM)?
**A.** < 0.0316 µM

**Q.** What about the IC50 (second compound 0.316 µM) of the same compound?
**A.** < 0.0316 µM

**Q.** What about the IC50 (second compound 1 µM) of the same compound?
**A.** < 0.0316 µM

**Q.** And the IC50 (second compound 3.16 µM)?
**A.** < 0.0316 µM

**Q.** And the IC50 (second compound 10 µM)?
**A.** < 0.0316 µM

**Q.** What about the viability, T/C [1] of the same compound?
**A.** 21.3%

**Q.** What about the viability, T/C [2] of the same compound?
**A.** 9.39%

**Q.** And the viability, T/C [3]?
**A.** 10.4%

**Q.** What about the viability, T/C [4] of the same compound?
**A.** 12.7%

**Q.** What about the viability, T/C [5] of the same compound?
**A.** 10.1%

**Q.** And the viability, T/C [6]?
**A.** 7.91%

**Q.** What about the viability, T/C [7] of the same compound?
**A.** 25.7%

**Q.** And the viability, T/C [8]?
**A.** 7.76%

**Q.** What about the viability, T/C [9] of the same compound?
**A.** 9.74%

**Q.** What about the viability, T/C [10] of the same compound?
**A.** 9.84%

**Q.** And the viability, T/C [11]?
**A.** 9.52%

**Q.** What about the viability, T/C [12] of the same compound?
**A.** 7.25%

**Q.** What about the viability, T/C [13] of the same compound?
**A.** 25.4%

**Q.** What about the viability, T/C [14] of the same compound?
**A.** 8.69%

**Q.** What about the viability, T/C [15] of the same compound?
**A.** 7.46%

**Q.** What about the viability, T/C [16] of the same compound?
**A.** 11.1%

**Q.** And the viability, T/C [17]?
**A.** 8.56%

**Q.** And the viability, T/C [18]?
**A.** 6.75%

**Q.** What about the viability, T/C [19] of the same compound?
**A.** 29.1%

**Q.** What about the viability, T/C [20] of the same compound?
**A.** 8.29%

**Q.** And the viability, T/C [21]?
**A.** 5.33%

**Q.** And the viability, T/C [22]?
**A.** 7.16%

**Q.** What about the viability, T/C [23] of the same compound?
**A.** 6.13%

**Q.** And the viability, T/C [24]?
**A.** 8.82%

**Q.** And the viability, T/C [25]?
**A.** 19.2%

**Q.** What about the viability, T/C [26] of the same compound?
**A.** 6.89%

**Q.** What about the viability, T/C [27] of the same compound?
**A.** 6.64%

**Q.** And the viability, T/C [28]?
**A.** 7.3%

**Q.** And the viability, T/C [29]?
**A.** 6.33%

**Q.** What about the viability, T/C [30] of the same compound?
**A.** 4.72%

**Q.** What about the viability, T/C [31] of the same compound?
**A.** 18.2%

**Q.** What about the viability, T/C [32] of the same compound?
**A.** 9.83%

**Q.** And the viability, T/C [33]?
**A.** 3.87%

**Q.** What about the viability, T/C [34] of the same compound?
**A.** 5.96%

**Q.** What about the viability, T/C [35] of the same compound?
**A.** 4.8%

**Q.** And the viability, T/C [36]?
**A.** 3.11%

**Q.** What does the source list for `CC1(C)CCC(CN2CCN(c3ccc(C(=O)NS(=O)(=O)c4ccc(NCC5CCOCC5)c([N+](=O)[O-])c4)c(Oc4cnc5[nH]ccc5c4)c3)CC2)=C(c2ccc(Cl)cc2)C1` + CN1CCN(c2cc(C(=O)Nc3cc4cc(-c5cnn(C)c5)ccc4cn3)ccn2)CC1?
**A.** IC50 (second compound 0.0316 µM): 5.54 µM; IC50 (second compound 0.1 µM): 6.73 µM; IC50 (second compound 0.316 µM): < 0.0316 µM; IC50 (second compound 1 µM): < 0.0316 µM; IC50 (second compound 3.16 µM): < 0.0316 µM; IC50 (second compound 10 µM): < 0.0316 µM; viability, T/C [1]: 106%; viability, T/C [2]: 142%; viability, T/C [3]: 113%; viability, T/C [4]: 86.5%; viability, T/C [5]: 101%; viability, T/C [6]: 6.09%; viability, T/C [7]: 174%; viability, T/C [8]: 220%; viability, T/C [9]: 181%; viability, T/C [10]: 178%; viability, T/C [11]: 139%; viability, T/C [12]: 2.94%; viability, T/C [13]: 4.83%; viability, T/C [14]: 6.64%; viability, T/C [15]: 4.64%; viability, T/C [16]: 5.62%; viability, T/C [17]: 4.76%; viability, T/C [18]: 2.09%; viability, T/C [19]: 0.18%; viability, T/C [20]: 2.13%; viability, T/C [21]: 1.78%; viability, T/C [22]: 0.17%; viability, T/C [23]: 1.22%; viability, T/C [24]: 0.59%; viability, T/C [25]: 0.97%; viability, T/C [26]: 1.19%; viability, T/C [27]: 0.31%; viability, T/C [28]: 0.2%; viability, T/C [29]: 0.16%; viability, T/C [30]: 3.63%; viability, T/C [31]: 0.86%; viability, T/C [32]: 3.93%; viability, T/C [33]: 1.09%; viability, T/C [34]: 0.43%; viability, T/C [35]: 0.52%; viability, T/C [36]: 0.32%
